Holding throughout (type): cell-based
In series [1] the target is T1, hERG (Homo sapiens, UniProt Q12809). Put plainly: hERG channel test using the QPatch technology (automated patch clamp, CHO cells). The arrangement: host or cells: CHO cells. As to conditions: for inhibition at 4 min, 30 µM: human, CHO cells stably expressing hERG channels, pH 7.4, highest test concentration 30 μM. As for the experimental part:
CHO cells (AVIVA Biosciences Corp, San Diego, CA) stably expressing hERG channels were patched using a QPatch-HT automated patch clamp instrument (Sophion Bioscience A/S, Ballerup, Denmark) in single hole mode. The intracellular solution consisted of 120 mM KCl, 5 mM CaCl2, 2 mM MgCl2, 10 mM ethylene glycolbis (2-aminoethylether)-N,N,N′,N′-tetraacetic acid (EGTA), 10 mM (4-(2-hydroxyethyl)-1-piperazineethanesulfonic acid (HEPES), and 4 mM dipotassium adenosine-5′-triphosphate (ATP-K2), pH adjusted to 7.2 using KOH. The extracellular solution consisted of 145 mM NaCl, 4 mM KCl, 2 CaCl2, 1 mM MgCl2, 10 mM HEPES, and 0.3% dimethyl sulfoxide (DMSO), adjusted to pH 7.4 using NaOH. All measurements were performed at room temperature, and the blockers were pre-incubated for 4 min. The cells were voltage clamped at −90 mV and the hERG current was activated using a voltage step to +20 mV for 4 s. The hERG tail currents were measured by stepping down to −50 mV for 4 s before returning to −90 mV. This protocol was repeated every 20 s. The peak hERG current was automatically corrected by subtracting the leak current, which was estimated by measuring the mean current during a short depolarizing step to −50 mV from the resting membrane potential just prior to the long depolarizing step to • +20 mV at the beginning of the voltage protocol. Test articles were diluted using DMSO stock solutions and the extracellular solution. […] The effect of the test article on the hERG tail current was assessed and 1, 10 and 30 μM and a positive control (amitriptiline, 1, 3 and μM) was included on each plate.
In general terms: The hERG channel carries a current that helps repolarise heart muscle cells.

Series [2] addresses T2, alpha-subunit of the hERG channel (Homo sapiens, UniProt Q12809).
T2 construct: expressed in transfected cells; host or cells: CHO (T-REX) cells, tetracycline-induced
The series is described as follows: hERG electrophysiological inhibition assay using the Qube technology (automated patch clamp, CHO cells). As for the experimental part:
(§1) Chinese hamster ovary (CHO) cell line, overexpressing the alpha-subunit of the hERG channel under the control of tetracycline-regulated promoter, was created using commercially available T-REX™ system (Invitrogen). CHO (T-REX™) hERG cells were maintained in Ham's F-12 nutrient medium (Life Tech) supplemented with 10% fetal bovine serum (HyClone), 1% penicillin-streptomycin, 10 μg/mL Blasticidin and 50 μg/mL Zeocin (all from Life Technologies, Thermo Fisher Scientific). For hERG expression induction, 1 μg/ml tetracycline (Sigma-Aldrich) was added to the growth media 24 hours before the current recording. To prepare the cell suspension for Qube experiments, cells were dislodged from culture flask by incubation in Detachin (Genlantis) at 37° C. for approximately 5 min, and resuspended in CHO serum free media (CHO-SFM II, Life Technologies) at a density of 2-3 million cells per mL.
(§2) Patch clamp experiments were performed on the Qube APC (automated patch clamp) platform (Sophion Bioscience A/S, Ballerup, Denmark) using the 384X 10-hole chip at 35° C. Intracellular KF-Ringer's solution consisted of (in mM) 120 KF, 20 KCl, […] ethylene glycol-bis(2-aminoethylether)-N,N,N′,N′-tetraacetic acid (EGTA) and 10 (4-(2-hydroxyethyl)-1-piperazineethanesulfonic acid (HEPES), pH at 7.2 with KOH. Extracellular solution consisted of (in mM) 145 NaCl, 4 KCl, 2 CaCl2, 1 MgCl2, 10 HEPES, 10 Glucose and 0.3% dimethyl sulfoxide (DMSO), pH at 7.4 with NaOH. The hERG current was elicited by applying the following voltage protocol: cells are held at −90 mV resting membrane potential for 100 msec, then clamped at −50 mV for 100 msec for leak estimation, depolarized to +20 mV for 4 sec (peak current measurement) and finally repolarized to −50 mV for 4 sec (tail current recording) before returning to the holding potential of −90 mV. The data are sampled at 10 KHz, with cutoff at 2 kHz, and filtered using the Bessel filter. The protocol was repeated every 15 s, 30 times before and 30 times after a compound application.
All compounds were prepared as 10 mM stock in 100% DMSO, then serially dilutes 1:3 down in Labcyte 384-well Echo Qualified LDV (low […] volume) microplate. The Qube assay plate was prepared by transferring 0.15-0.3 μL of a compound from the serial dilution plate to the 384-well Greiner plate using Labcyte Echo 650 liquid handler (Beckman). Right before the experiment, the compounds in each well were further diluted in extracellular solution using Biomek i7 liquid handler (Beckman) to create the final concentrations of 0.37, 1.1, 3.3, 10, 15 and 30 μM (1:333 dilution to keep the final DMSO concentration in all samples ≤0.3%). Amitriptyline hydrochloride (positive control) and DMSO (0.3%, vehicle control) were included in each plate.
(§3) The results were initially reviewed using the Qube specific Sophion Analyzer software (Sophion Bioscience), then analyzed using Data Analysis and Visualization in Discovery (DAVID) software package (Novartis AG). The compound effect on hERG current inhibition (normalized percentage of inhibition) was calculated as % Inh=(Icompound−Ivehicle)/Ivehicle*−100, where Icompound and Ivehicle are the averages of the last three leak-corrected tail hERG currents […] a compound application, respectively. […]

The subject of series [3] is Pam3CSK4-stimulated, NF-κB-dependent TNF-α secretion. The series is described as follows: TNF-α secretion assay (counter screen, THP-1 cells, HTRF). To be noted: Homo sapiens, undifferentiated THP-1 cells, 3 h, at least 2 replicates. As for the experimental part: Monocytic THP-1 cells were maintained according to providers' instructions in RPMI media as described above. Undifferentiated cells were plated at 50,000 cells per well in a 384-well flat-bottom cell culture plates (Greiner, #781986), and allowed to rest overnight. Experimental compounds were prepared and added as described above. TNF-α secretion was triggered by the addition of either 1 μg/mL LPS (Sigma, #L4391) or 100 ng/ml Pam3CSK4 (Invivogen, #tlrl-pms) depending on the experiment, and cells were incubated for 3 h. 10 μL supernatant was removed, and TNF-α levels were monitored using an HTRF assay (CisBio, #62TNFPEC) according to manufacturers' instructions. Viability was monitored as
IC50 values were calculated from the plot of percentage of inhibition versus the inhibitor concentration by a logistics fit according to: y=A2+(A1−A2)/(1+(x/IC50)^p) where y is the %-inhibition at the inhibitor concentration, x. A1 is the lowest inhibition value, i.e. 0%, and A2 the maximum inhibition value, i.e. 100%. The exponent, p, is the Hill coefficient. The curve fitting was conducted with an internally developed software suite. NLRP3-dependent IL-1β secretion was stimulated in PMA-differentiated THP-1 cells by the addition of nigericin, and cytokines were measured in the […] after 3 h. As discussed above, activation of the NLRP3 inflammasome requires both an NF-κB-dependent priming step and the addition of a NLRP3 activator. […] Data for IL-1β secretion was calculated as the arithmetic mean of at least 3 individual experiments, and TNF-α secretion data was consistent across at least 2 individual replicates.

For series [4], the target named is T1, hERG. The series is described as follows: hERG electrophysiological inhibition assay using the Qube technology (automated patch clamp, CHO cells). The arrangement: expressed in transfected cells; host or cells: CHO (T-REX) cells, tetracycline-induced. As to conditions: human, pH 7.4; 30 μM, CHO (T-REx) hERG cells, 35° C. On the procedure: as §1, §2
All compounds were prepared as 10 mM stock in 100% DMSO, then serially dilutes 1:3 down in Labcyte 384-well Echo Qualified LDV (low diamond volume) microplate. […]
as §3

The target of the next series is T3, NLRP3 inflammasome (Homo sapiens, UniProt Q96P20).
T3 construct: NLRP3-dependent IL-1β secretion was stimulated in PMA-differentiated THP-1 cells by the addition of nigericin; host or cells: THP-1 cells, PMA-differentiated
The series is described as follows: IL-1β secretion assay (nigericin-activated, PMA-differentiated THP-1 cells, HTRF). As to conditions: 15 μM nigericin, 3 h, arithmetic mean of at least 3 experiments. (In general: Time-resolved FRET reads energy transfer from a long-lived donor to a nearby acceptor.)

Setting [5] is: CHO cells stably expressing hERG, room temperature.
[6] abbreviates: CHO (T-REx) hERG cells, 35° C., tail current.

Four molecules from patent publication US12378222B2, “NLRP3 inflammasome inhibitors” (Novartis AG, priority 2022, dated 2025) can be followed below.

T1 sequence (Q12809 whole entry): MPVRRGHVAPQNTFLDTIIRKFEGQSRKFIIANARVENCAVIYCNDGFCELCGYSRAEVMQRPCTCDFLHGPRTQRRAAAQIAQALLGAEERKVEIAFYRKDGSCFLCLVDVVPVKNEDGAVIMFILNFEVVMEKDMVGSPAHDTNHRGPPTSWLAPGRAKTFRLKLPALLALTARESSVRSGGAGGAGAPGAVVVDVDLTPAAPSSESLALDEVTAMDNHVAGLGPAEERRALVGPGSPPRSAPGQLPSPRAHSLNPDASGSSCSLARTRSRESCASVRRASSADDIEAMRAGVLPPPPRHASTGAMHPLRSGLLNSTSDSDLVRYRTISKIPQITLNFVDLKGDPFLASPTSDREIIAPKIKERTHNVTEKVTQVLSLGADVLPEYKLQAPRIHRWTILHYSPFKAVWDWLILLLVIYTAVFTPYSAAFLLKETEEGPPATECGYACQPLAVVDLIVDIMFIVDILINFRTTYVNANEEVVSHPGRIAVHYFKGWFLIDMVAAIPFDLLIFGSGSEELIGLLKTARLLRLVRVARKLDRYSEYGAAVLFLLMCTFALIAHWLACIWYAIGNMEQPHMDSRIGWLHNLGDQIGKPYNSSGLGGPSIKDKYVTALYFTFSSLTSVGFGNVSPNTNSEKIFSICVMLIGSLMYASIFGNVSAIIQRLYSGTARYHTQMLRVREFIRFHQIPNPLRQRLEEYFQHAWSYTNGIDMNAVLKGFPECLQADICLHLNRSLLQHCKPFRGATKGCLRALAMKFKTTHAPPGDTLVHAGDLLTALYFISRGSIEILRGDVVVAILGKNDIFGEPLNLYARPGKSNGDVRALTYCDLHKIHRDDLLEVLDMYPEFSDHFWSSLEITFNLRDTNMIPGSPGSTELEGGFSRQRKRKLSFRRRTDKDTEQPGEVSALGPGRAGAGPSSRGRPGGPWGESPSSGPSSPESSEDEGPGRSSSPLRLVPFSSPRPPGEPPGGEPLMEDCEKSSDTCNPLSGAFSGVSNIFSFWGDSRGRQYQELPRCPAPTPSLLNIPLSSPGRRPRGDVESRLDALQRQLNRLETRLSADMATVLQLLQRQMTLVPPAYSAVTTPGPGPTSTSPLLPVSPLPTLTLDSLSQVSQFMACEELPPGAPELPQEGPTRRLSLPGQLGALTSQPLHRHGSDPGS
T2 sequence (Q12809 whole entry): as above
T3 sequence (Q96P20 whole entry): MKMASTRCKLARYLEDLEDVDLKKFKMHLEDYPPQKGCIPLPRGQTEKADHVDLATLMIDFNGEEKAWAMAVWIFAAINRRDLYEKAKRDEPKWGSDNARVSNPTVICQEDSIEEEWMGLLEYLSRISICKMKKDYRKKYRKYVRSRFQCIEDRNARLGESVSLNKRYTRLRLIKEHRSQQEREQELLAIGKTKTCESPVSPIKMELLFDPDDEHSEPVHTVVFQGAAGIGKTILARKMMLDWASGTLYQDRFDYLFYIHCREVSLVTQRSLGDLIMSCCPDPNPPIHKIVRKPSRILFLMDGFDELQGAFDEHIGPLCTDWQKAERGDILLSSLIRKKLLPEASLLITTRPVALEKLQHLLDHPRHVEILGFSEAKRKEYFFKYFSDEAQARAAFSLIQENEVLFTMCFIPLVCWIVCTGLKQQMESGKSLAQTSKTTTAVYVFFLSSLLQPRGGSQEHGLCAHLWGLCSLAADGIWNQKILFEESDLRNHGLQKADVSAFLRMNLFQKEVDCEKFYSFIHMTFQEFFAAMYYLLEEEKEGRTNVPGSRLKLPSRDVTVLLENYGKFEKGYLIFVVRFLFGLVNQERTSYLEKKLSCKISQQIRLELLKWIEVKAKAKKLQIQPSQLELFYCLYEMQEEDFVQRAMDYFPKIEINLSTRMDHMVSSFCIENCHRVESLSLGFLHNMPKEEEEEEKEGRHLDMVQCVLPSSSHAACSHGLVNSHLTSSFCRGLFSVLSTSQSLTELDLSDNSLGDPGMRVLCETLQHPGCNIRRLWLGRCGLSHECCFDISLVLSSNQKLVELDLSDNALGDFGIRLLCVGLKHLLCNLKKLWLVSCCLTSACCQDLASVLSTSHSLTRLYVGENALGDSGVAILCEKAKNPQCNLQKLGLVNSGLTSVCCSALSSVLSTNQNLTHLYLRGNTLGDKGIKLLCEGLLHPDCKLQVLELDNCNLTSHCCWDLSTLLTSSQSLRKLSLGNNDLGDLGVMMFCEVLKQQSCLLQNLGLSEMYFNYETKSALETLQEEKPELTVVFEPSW
Experimental for NLRP3 inflammasome: Monocytic THP-1 cells (ATCC: TIB-202) were maintained according to providers' instructions in RPMI media (RPMI/Hepes+10% fetal bovine serum+Sodium Pyruvate+0.05 mM Beta-mercaptoethanol (1000× stock)+Pen-Strep). Cells were differentiated in bulk with 0.5 μM phorbol 12-myristate 13-acetate (PMA; Sigma #P8139) for 3 h, media was exchanged, and cells were plated at 50,000 cells per well in a 384-well flat-bottom cell culture plates (Greiner, #781986), and allowed to differentiate overnight. Compound in a 1:3.16 serial dilution series in DMSO was added 1:100 to the cells and incubated for 1 h. […] 10 μL supernatant was removed, and IL-1β levels were monitored using an HTRF (Homogeneous Time Resolved Fluorescence) assay (CisBio, #62IL1PEC) according to manufacturers' instructions.
IC50 values were calculated from the plot of percentage of inhibition versus the inhibitor concentration by a logistics fit according to: y=A2+(A1−A2)/(1+(x/IC50)^p) where y is the %-inhibition at the inhibitor concentration, x. […] NLRP3-dependent IL-1β secretion was stimulated in PMA-differentiated THP-1 cells by the addition of nigericin, and cytokines were measured in the serum after 3 h. […] Data for IL-1β secretion was calculated as the arithmetic mean of at least 3 individual experiments, and TNF-α secretion data was consistent across at least 2 individual replicates.

Take `Cc1cc(C(F)(F)F)cc(O)c1-c1cc(C(F)(F)F)c(N[C@@H]2CCCN(C)C2)nn1` [Reference ex. 2, (R)-3-methyl-2-(6-((1-methylpiperidin-3-yl)amino)-5-(trifluoromethyl)pyridazin-3-yl)-5-(trifluoromethyl)phenol]: on hERG [1] (setting [5]), the inhibition – broadly, the percentage by which the read-out fell short of the control – at 4 min, 30 µM was determined as 93.6%. The IC50 (commonly the concentration at which inhibition is half-maximal) at hERG [1] (unit inferred) was 3.9 µM; in series [2] (unit inferred), 5.62 µM; in series [3] it was more than 100 µM. Moreover, the inhibition at 7.5 min, 30 µM at hERG [4] turned out to be 74.9%.

Turning to `Cc1cc(-c2c(C)cc(C(F)(F)F)cc2O)nnc1N[C@@H]1CCCN(C)C1` [Reference ex. 1, (R)-3-Methyl-2-(5-methyl-6-((1-methylpiperidin-3-yl)amino)pyridazin-3-yl)-5-(trifluoromethyl)phenol], the inhibition at 4 min, 30 µM at hERG [1] (setting [5]) came out at 64.7%. Further, the 50% inhibitory concentration (IC50) was 13.1 µM on hERG [1] (unit inferred), 4.71 µM in series [2] (unit inferred) and more than 33 µM in series [3]. In addition, the inhibition at 7.5 min, 30 µM on hERG [4] came to 77.9%.

For the molecule `Cc1cc(C(F)(F)F)cc(O)c1-c1cc(CO)c(N[C@@H]2CCCN(C)C2)nn1` [Example 1, (R)-2-(5-(hydroxymethyl)-6-((1-methylpiperidin-3-yl)amino)pyridazin-3-yl)-3-methyl-5-(trifluoromethyl)phenol], the IC50 against NLRP3 inflammasome is 0.00072 µM; on hERG [1] (CHO cells stably expressing hERG, room temperature, tail current, tested at 1, 10 and 30 μM), more than 30 µM; in series [2] (setting [6]), more than 30 µM; in series [3] it was more than 100 µM. For the same molecule, at hERG [1] (comparison in words), the “hERG QPatch IC50 compared with reference examples 1 and 2” value is recorded as “considerably increased”. In addition, the inhibition at 4 min, 30 µM on hERG [1] (setting [5]) stood at 24.3%. The “hERG Qube IC50 compared with reference examples 1 and 2” value in series [2] (comparison in words) was “considerably increased”. The inhibition at 7.5 min, 30 µM against hERG [4] came out at 40.9%.

On to `Cc1cc(C(F)(F)F)cc(O)c1-c1nnc(N[C@@H]2CCCN(C)C2)c2c1COC2` [Reference ex. 3, 3-methyl-2-(4-(((R)-1-methylpiperidin-3-yl)amino)-5,7-dihydrofuro[3,4-d]pyridazin-1-yl)-5-(trifluoromethyl)phenol], for which the concentration for half-maximal inhibition (IC50) against NLRP3 inflammasome is 0.0037 µM; in series [2] (setting [6]) it was more than 30 µM; in series [3], more than 100 µM. Moreover, the inhibition at 7.5 min, 30 µM on hERG [4] came out at 49.8%.
